The term IC50 denotes the concentration needed to halve the response being measured.

Where two headings read alike, the source gives them in different places.

Data set [1] addresses T1, hROMK (human Kir1.1) (Homo sapiens (Human), UniProt P48048). Put plainly: cell-based. The settings on record: CHO T-Rex hROMK stable cell line; thallium flux; 10-point concentration response curve; read-out: Human ROMK Th Flux IC50.
The target of data set [2] is T1, hROMK (human Kir1.1). As to the kind of experiment: cell-based. The format is cell-based. The settings on record: whole-cell manual patch clamp, CHO T-Rex hROMK stable cell line, voltage step to -120 mV, Ba2+-subtracted hROMK current; read-out: ROMK EP IC50. A general note: The patch-clamp technique gives a direct electrical read-out from membranes.
Experimental: ROMK Manual Patch Clamp Assay
Cell culture conditions: Cells were maintained in conditions similar to those for Thallium flux assay. hROMK channel expression was induced by adding 0.6 μg/ml of Doxycycline 16-24 hrs prior to the experiments. On the day of experiment, the cells were dissociated using Versene, resuspended in growth media and plated onto coverslips 15 minutes prior to use.
Electrophysiology: The coverslip plated with cells was placed in the experiment chamber perfused with bath solution composed of (in mM): 135 NaCl, 5 KCl, 2 CaCl2, 1 MgCl2, 10 HEPES, 5 Glucose (pH 7.4). Patch pipettes with resistance between 2-5 Megaohms, when filled with a solution containing (in mM): 135 KCl, 1 EGTA, 1 MgCl2, 10 HEPES, 2 Na2ATP (pH 7.3), were used to form gigaseals. The cells were voltage clamped at −75 mV in whole-cell configuration using an Axopatch 200b or Multiclamp 700b (Molecular Devices) amplifier controlled by pClamp Software (Molecular Devices). The current was recorded by applying a voltage step to −120 mV every 10 seconds. […] At the end of the experiment, the cells were perfused with bath solution containing 2 mM Ba^2+ to isolate the contribution of hROMK current.
Data analysis: Raw current values (5 traces each for control, different compound concentration and Ba^2+ treatment groups) were exported from Clampfit into Microsoft Excel where the current remaining after application of Ba^2+ was subtracted from raw current to obtain hROMK specific current.
Another data set deals with hERG channels (Homo sapiens (Human), UniProt Q12809). Put plainly: hERG Manual Patch Clamp Assay. The format is cell-based. The conditions noted are these: human, HEK 293 cells stably expressing hERG channels, pH 7.4, 1 uM, read-out: hERG EP % Inh @ 1 uM. Background: The hERG channel carries a current that helps repolarise heart muscle cells.
Chain of hERG channels (Q12809 whole entry): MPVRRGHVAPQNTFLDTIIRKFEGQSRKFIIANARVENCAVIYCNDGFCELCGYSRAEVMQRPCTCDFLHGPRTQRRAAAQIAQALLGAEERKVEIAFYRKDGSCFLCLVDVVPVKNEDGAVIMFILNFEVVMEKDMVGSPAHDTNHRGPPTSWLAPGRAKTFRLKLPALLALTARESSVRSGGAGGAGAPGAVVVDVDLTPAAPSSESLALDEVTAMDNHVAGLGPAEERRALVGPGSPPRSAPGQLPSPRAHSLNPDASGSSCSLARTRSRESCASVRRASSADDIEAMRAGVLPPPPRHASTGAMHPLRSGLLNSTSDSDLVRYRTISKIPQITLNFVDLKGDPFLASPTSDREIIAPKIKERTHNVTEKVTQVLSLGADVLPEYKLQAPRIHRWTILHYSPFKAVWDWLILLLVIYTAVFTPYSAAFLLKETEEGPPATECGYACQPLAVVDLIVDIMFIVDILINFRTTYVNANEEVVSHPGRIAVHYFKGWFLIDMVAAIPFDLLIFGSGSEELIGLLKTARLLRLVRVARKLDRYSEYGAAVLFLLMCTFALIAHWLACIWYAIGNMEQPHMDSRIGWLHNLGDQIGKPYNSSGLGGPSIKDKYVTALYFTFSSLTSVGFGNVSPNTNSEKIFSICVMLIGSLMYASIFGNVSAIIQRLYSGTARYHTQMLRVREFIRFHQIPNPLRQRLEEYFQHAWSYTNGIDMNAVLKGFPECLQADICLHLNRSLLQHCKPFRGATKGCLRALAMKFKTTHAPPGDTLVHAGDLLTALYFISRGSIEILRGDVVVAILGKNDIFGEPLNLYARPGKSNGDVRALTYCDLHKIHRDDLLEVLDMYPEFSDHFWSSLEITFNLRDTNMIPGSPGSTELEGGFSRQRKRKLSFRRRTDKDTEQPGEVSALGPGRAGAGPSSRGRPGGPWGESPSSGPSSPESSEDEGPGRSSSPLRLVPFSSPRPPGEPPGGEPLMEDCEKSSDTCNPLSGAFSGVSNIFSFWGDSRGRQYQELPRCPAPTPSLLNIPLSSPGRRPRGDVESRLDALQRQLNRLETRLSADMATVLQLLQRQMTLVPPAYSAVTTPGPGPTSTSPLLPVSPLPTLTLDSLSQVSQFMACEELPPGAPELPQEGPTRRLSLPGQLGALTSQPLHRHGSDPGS

T1 sequence (P48048 whole entry): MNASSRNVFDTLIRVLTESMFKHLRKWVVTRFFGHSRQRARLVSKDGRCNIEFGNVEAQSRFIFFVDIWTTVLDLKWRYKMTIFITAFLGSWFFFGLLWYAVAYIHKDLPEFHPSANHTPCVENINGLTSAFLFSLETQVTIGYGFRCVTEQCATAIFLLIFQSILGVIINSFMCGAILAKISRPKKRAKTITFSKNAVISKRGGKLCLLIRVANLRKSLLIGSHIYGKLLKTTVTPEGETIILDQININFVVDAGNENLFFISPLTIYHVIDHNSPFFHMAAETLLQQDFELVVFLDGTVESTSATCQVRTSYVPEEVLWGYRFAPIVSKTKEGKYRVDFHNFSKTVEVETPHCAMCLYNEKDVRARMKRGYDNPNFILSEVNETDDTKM
Experimental for hERG channels: hERG electrophysiology assay: The experimental compounds were assessed for hERG activity on HEK 293 cells stably expressing hERG channels using patch clamp technique. Coverslips plated with hERG expressing cells were placed in the experimental chamber and were perfused with a solution composed of (in mM): 140 NaCl, 4 KCl, 1.8 CaCl2, 1 MgCl2, 10 Glucose, 10 HEPES (pH 7.4, NaOH) at room temperature. Borosilicate patch pipettes had tip resistances of 2-4 Mohms when filled with an internal solution containing: 130 KCl, 1 MgCl2, 1 CaCl2, 10 EGTA, 10 HEPES, 5 ATP-K2 (pH 7.2, KOH). The cells were clamped at −80 mV in whole cell configuration using an Axopatch 200B (Axon instruments, Union City, Calif.) patch clamp amplifier controlled by pClamp (Axon instruments) software. Upon formation of a gigaseal, the following voltage protocol was repeatedly (0.05 Hz) applied to record tail currents: depolarization step from −80 mV to +20 mV for 2 seconds followed by a hyperpolarization step to −65 mV (3 seconds) to elicit tail currents. Compounds were applied after stabilization of tail current. First, tail currents were recorded in presence of extracellular solution alone (control) and subsequently, in extracellular solution containing increasing compound concentrations. Each compound concentration was applied for 2-5 minutes. The percentage inhibition at each concentration was calculated as reduction in peak tail current with respect to the peak tail current recorded in the presence of control solution. Data analysis was performed in a custom made template. The percent inhibitions at different concentrations were plotted to obtain a concentration response curve, which was subsequently fitted with a four parameter equation to calculate hERG IC50 value.

As for `Cc1ncn(-c2ncc(CN3C[C@@H](c4ccc5c(c4C)COC5=O)N[C@@H](C)C3)cn2)c1C` [Example 94-I, 5-((2R,6S)-4-((2-(4,5-dimethyl-1H-imidazol-1-yl)pyrimidin-5-yl)methyl)-6-methylpiperazin-2-yl)-4-methylisobenzofuran-1(3H)-one], the concentration for half-maximal inhibition (IC50) on hROMK (human Kir1.1) [1] is 39 nM; at hROMK (human Kir1.1) [2], 14 nM. In addition, the inhibition at 1 µM on hERG channels was found to be 4.3%.
`COc1nc(-n2cc(CN3C[C@@H](c4ccc5c(c4C)COC5=O)N[C@@H](C)C3)cn2)ncc1C#N` [Example 99-I, 4-methoxy-2-(4-(((3S,5R)-3-methyl-5-(4-methyl-1-oxo-1,3-dihydroisobenzofur-an-5-yl)piperazin-1-yl)methyl)-1H-pyrazol-1-yl)pyrimidine-5-carbonitrile]: the IC50 at hROMK (human Kir1.1) [1] was 33 nM; on hROMK (human Kir1.1) [2], 29 nM. Moreover, on hERG channels, the inhibition at 1 µM came out at 9.6%.
For the molecule `Cc1nc(-n2ncc(CN3C[C@@H](c4ccc5c(c4C)COC5=O)N[C@@H](C)C3)n2)ncc1C#N` [Example 100-I, 4-methyl-2-(4-(((3S,5R)-3-methyl-5-(4-methyl-1-oxo-1,3-dihydroisobenzofur-an-5-yl)piperazin-1-yl)methyl)-2H-1,2,3-triazol-2-yl)pyrimidine-5-carbonitrile], the results for the IC50 at hROMK (human Kir1.1) [1] and at hROMK (human Kir1.1) [2] were 40 nM and 25 nM, respectively. Besides, at hERG channels, the inhibition at 1 µM came out at 3.6%.
As for `COc1cc(-n2cnc(CN3C[C@@H](c4ccc5c(c4C)COC5=O)N[C@@H](C)C3)c2)ccc1C#N` [Example 101-I, 2-methoxy-4-(4-(((3S,5R)-3-methyl-5-(4-methyl-1-oxo-1,3-dihydroisobenzofur-an-5-yl)piperazin-1-yl)methyl)-1H-imidazol-1-yl)benzonitrile], the IC50 at hROMK (human Kir1.1) [1] came to 26 nM; at hROMK (human Kir1.1) [2], 34 nM. In addition, the inhibition at 1 µM at hERG channels came to 3%.
For the molecule `Cc1cc(-n2cc(CN3C[C@@H](c4ccc5c(c4C)COC5=O)N[C@@H](C)C3)cn2)ccn1` [Example 102-I, 4-methyl-5-((2R,6S)-6-methyl-4-((1-(2-methylpyridin-4-yl)-1H-pyrazol-4-yl)methyl)piperazin-2-yl)isobenzofuran-1(3H)-one], the IC50 on hROMK (human Kir1.1) [1] was 48 nM; on hROMK (human Kir1.1) [2], 17 nM. At hERG channels, the inhibition at 1 µM came out at 5.6%.
On to `COc1nc(-n2cnc(CN3C[C@@H](c4ccc5c(c4C)COC5=O)N[C@@H](C)C3)c2)ncc1C#N` [Example 103-I, 4-methoxy-2-(4-(((3S,5R)-3-methyl-5-(4-methyl-1-oxo-1,3-dihydroisobenzofur-an-5-yl)piperazin-1-yl)methyl)-1H-imidazol-1-yl)pyrimidine-5-carbonitrile], for which the results for the IC50 on hROMK (human Kir1.1) [1] and on hROMK (human Kir1.1) [2] were 25 nM and 29 nM, respectively. For the same molecule, the inhibition at 1 µM at hERG channels was determined as 14%.
In the case of `Cc1cc(-n2cc(CN3C[C@@H](c4ccc5c(c4C)COC5=O)N[C@@H](C)C3)cn2)ncc1C#N` [Example 105-I, 4-methyl-6-(4-(((3S,5R)-3-methyl-5-(4-methyl-1-oxo-1,3-dihydroisobenzofur-an-5-yl)piperazin-1-yl)methyl)-1H-pyrazol-1-yl)nicotinonitrile], the concentration for half-maximal inhibition (IC50) on hROMK (human Kir1.1) [1] turned out to be 26 nM; at hROMK (human Kir1.1) [2], 11 nM. In addition, the inhibition at 1 µM at hERG channels came out at 9.7%.
As to `COc1cc(-n2ncc(CN3C[C@@H](c4ccc5c(c4C)COC5=O)N[C@@H](C)C3)n2)ncc1C#N` [Example 107-I, 4-methoxy-6-(4-(((3S,5R)-3-methyl-5-(4-methyl-1-oxo-1,3-dihydroisobenzofur-an-5-yl)piperazin-1-yl)methyl)-2H-1,2,3-triazol-2-yl)nicotinonitrile], the IC50 on hROMK (human Kir1.1) [1] was found to be 26 nM; on hROMK (human Kir1.1) [2], 18 nM. Moreover, the inhibition at 1 µM at hERG channels turned out to be 13%.
As for `Cc1nn(-c2ncc(CN3C[C@@H](c4ccc5c(c4C)COC5=O)N[C@@H](C)C3)cn2)cc1C#N` [Example 108-I, 3-methyl-1-(5-(((3S,5R)-3-methyl-5-(4-methyl-1-oxo-1,3-dihydroisobenzofur-an-5-yl)piperazin-1-yl)methyl)pyrimidin-2-yl)-1H-pyrazole-4-carbonitrile], the IC50 at hROMK (human Kir1.1) [1] amounted to 30 nM; at hROMK (human Kir1.1) [2], 21 nM. On hERG channels, the inhibition at 1 µM stood at 8.7%.
The like results for `COc1cc(-n2cnc(CN3C[C@@H](c4ccc5c(c4C)COC5=O)N[C@@H](C)C3)c2)ccn1` [Example 126-I, 5-((2R,6S)-4-((1-(2-methoxypyridin-4-yl)-1H-imidazol-4-yl)methyl)-6-methylpiperazin-2-yl)-4-methylisobenzofuran-1(3H)-one] were, in that order, 34 nM, 17 nM and 7.8%.
As to `Cc1c([C@@H]2CN(Cc3cnn(-c4ccnc(C(F)F)c4)c3)C[C@H](C)N2)ccc2c1COC2=O` [Example 127-I, 5-((2R,6S)-4-((1-(2-(difluoromethyl)pyridin-4-yl)-1H-pyrazol-4-yl)methyl)-6-methylpiperazin-2-yl)-4-methylisobenzofuran-1(3H)-one], the IC50 came out at 21 nM at hROMK (human Kir1.1) [1] and 14 nM at hROMK (human Kir1.1) [2]. Besides, the inhibition at 1 µM on hERG channels was found to be 16%.
As to `Cc1cc(-c2nc(CN3C[C@@H](c4ccc5c(c4C)COC5=O)N[C@@H](C)C3)co2)ncc1C#N` [Example 130-I], the IC50 was determined as 52 nM on hROMK (human Kir1.1) [1] and 20 nM at hROMK (human Kir1.1) [2]. For the same molecule, the inhibition at 1 µM at hERG channels worked out at 8.4%.
Regarding `Cc1cn(-c2ncc(CN3CCN[C@H](c4ccc5c(c4C)COC5=O)C3)cn2)c(C)n1` [Example 139-I, (R)-5-(4-((2-(2,4-dimethyl-1H-imidazol-1-yl)pyrimidin-5-yl)methyl)piperazin-2-yl)-4-methylisobenzofuran-1(3H)-one], the IC50 at hROMK (human Kir1.1) [1] amounted to 36 nM; at hROMK (human Kir1.1) [2] it was 30 nM. Further, at hERG channels, the inhibition at 1 µM turned out to be 6.6%.
For `Cc1ncn(-c2ncc(CN3CCN[C@H](c4ccc5c(c4C)COC5=O)C3)cn2)c1C` [Example 148-I, (R)-5-(4-((2-(4,5-dimethyl-1H-imidazol-1-yl)pyrimidin-5-yl)methyl)piperazin-2-yl)-4-methylisobenzofuran-1(3H)-one] the same measures were 27 nM, 19 nM and 8.8%.
As to `Cc1nc(-n2ncc(CN3C[C@@H](c4ccc5c(c4C)COC5=O)N[C@@H](C)C3)n2)nc(C)c1C#N` [Example 151-I, 4,6-dimethyl-2-(4-(((3S,5R)-3-methyl-5-(4-methyl-1-oxo-1,3-dihydroisobenzofuran-5-yl)piperazin-1-yl)methyl)-2H-1,2,3-triazol-2-yl)pyrimidine-5-carbonitrile], the figures for the half-inhibitory concentration (IC50) at hROMK (human Kir1.1) [1] and at hROMK (human Kir1.1) [2] were 43 nM and 64 nM, respectively. The inhibition at 1 µM at hERG channels turned out to be 5.1%.
Take `Cc1nc(-n2cnc(CN3C[C@@H](c4ccc5c(c4C)COC5=O)N[C@@H](C)C3)c2)ncc1C#N` [Example 164-I, 4-methyl-2-(4-(((3S,5R)-3-methyl-5-(4-methyl-1-oxo-1,3-dihydroisobenzofuran-5-yl)piperazin-1-yl)methyl)-1H-imidazol-1-yl)pyrimidine-5-carbonitrile]: the IC50 stood at 31 nM at hROMK (human Kir1.1) [1] and 30 nM at hROMK (human Kir1.1) [2]. Moreover, on hERG channels, the inhibition at 1 µM was 6%.
For `Cc1c([C@@H]2CN(Cc3ccc(-c4ccc(S(C)(=O)=O)nc4)nc3)C[C@H](C)N2)ccc2c1COC2=O` [Example 165-I, 4-methyl-5-((2R,6S)-6-methyl-4-((6′-(methylsulfonyl)-[2,3′-bipyridin]-5-yl)methyl)piperazin-2-yl)isobenzofuran-1(3H)-one], the IC50 worked out at 67 nM at hROMK (human Kir1.1) [1] and 39 nM on hROMK (human Kir1.1) [2]. In addition, at hERG channels, the inhibition at 1 µM is 5.4%.
Take `COc1nc(-n2ncc(CN3C[C@@H](c4ccc5c(c4C)COC5=O)N[C@@H](C)C3)n2)ncc1C#N` [Example 166-I, 4-methoxy-2-(4-(((3S,5R)-3-methyl-5-(4-methyl-1-oxo-1,3-dihydroisobenzofuran-5-yl)piperazin-1-yl)methyl)-2H-1,2,3-triazol-2-yl)pyrimidine-5-carbonitrile]: the IC50 on hROMK (human Kir1.1) [1] was determined as 30 nM; on hROMK (human Kir1.1) [2], 13 nM. Also, the inhibition at 1 µM at hERG channels came to 6%.
`COc1nc(-n2cc(CN3C[C@@H](c4ccc5c(c4C)COC5=O)N[C@@H](C)C3)nc2C)ncc1C#N` [Example 167-I, 4-methoxy-2-(2-methyl-4-(((3S,5R)-3-methyl-5-(4-methyl-1-oxo-1,3-dihydroisobenzofuran-5-yl)piperazin-1-yl)methyl)-1H-imidazol-1-yl)pyrimidine-5-carbonitrile]: the IC50 stood at 26 nM at hROMK (human Kir1.1) [1] and 18 nM on hROMK (human Kir1.1) [2]. Moreover, at hERG channels, the inhibition at 1 µM turned out to be 11%.
On to `COc1cc(-n2ncc(CN3CCN[C@H](c4ccc5c(c4C)COC5=O)C3)n2)ncc1C#N` [Example 168-I, (R)-4-methoxy-6-(4-((3-(4-methyl-1-oxo-1,3-dihydroisobenzofuran-5-yl)piperazin-1-yl)methyl)-2H-1,2,3-triazol-2-yl)nicotinonitrile], for which the figures for the IC50 at hROMK (human Kir1.1) [1] and at hROMK (human Kir1.1) [2] were 20 nM and 29 nM, respectively. Also, the inhibition at 1 µM on hERG channels stood at 22%.
For the molecule `COc1cc(-n2cc(CN3CC[C@@H](O)[C@H](c4ccc5c(c4C)COC5=O)C3)n(C)c2=O)ncc1C#N` [Example 171-I, 6-(4-(((3R,4R)-4-hydroxy-3-(4-methyl-1-oxo-1,3-dihydroisobenzofuran-5-yl)piperidin-1-yl)methyl)-3-methyl-2-oxo-2,3-dihydro-1H-imidazol-1-yl)-4-methoxynicotinonitrile], the IC50 at hROMK (human Kir1.1) [1] was determined as 27 nM; at hROMK (human Kir1.1) [2] it was 26 nM. The inhibition at 1 µM on hERG channels was 16%.
For `Cc1nccc(-n2cc(CN3C[C@@H](c4ccc5c(c4C)COC5=O)N[C@@H](C)C3)n(C)c2=O)n1` [Example 173-I, 3-methyl-4-(((3S,5R)-3-methyl-5-(4-methyl-1-oxo-1,3-dihdyroisobenzofuran-5-yl)piperazin-1-yl)methyl)-1-(2-methylpyrimidin-4-yl)-1,3-dihydro-2H-imidazol-2-one] the same measures were 55 nM, 21 nM and 4%.

The record behind these values is patent publication US10501449B2 (priority 2018, dated 2019).
